This passage reports pKa and pH sensitivity results from patent US8101655B2, “Fluorescent dyes and complexes” (priority 2004, dated 2012).

In general, pKa refers to the negative logarithm of the acid dissociation constant. Higher therefore signals a weaker acid or stronger base.

Read-outs that look alike come from different tables or passages of the source.

Data set [1] is described as follows: pKa of dyes and complexes (fluorescence titration).
Text: By way of illustration, Table 1, below, lists a number of dyes, some prior to functionalisation, and complexes according to the present invention (in each X is O^−), together with their pKa values.
Data set [2] in a line: Fluorescence / colour response to pH. The class given is physicochemical. As to conditions: on tlc, compared with 2-[3,6-bisdimethylaminoxanth-9-ylium]-5-dimethylaminophenol. The source says:
The dyes and complexes of the present invention show a negative fluorescence intensity response with increasing pH. […] Furthermore, the pals of these dyes and complexes may be varied by selection of the substituents R^5 and R^6, and by the inclusion of electron donating groups on the lowermost aryl ring, to give a range of dyes and complexes having pKa's particularly suited to cell analysis procedures.

Turning to “R1-Y=NHCSNC6H4CH2CH2; target=transferin; R2=Et; R3=Me; R4=Me; R5-Y2=Et; R6=Et: complex of a dye of formula (I) bonded to transferin”, in data set [1] (Table 1, X is O-, dyes and complexes), the pKa stood at 2.0.
Consider “2-[3-diethylamino-6-dimethylamino-xanth-9-ylium]-5-dimethylaminophenol”, for which the pH sensitivity result in data set [2] is recorded as “same pH sensitivity”.
As for `COCCOCCN(CCOCCOC)c1ccc(-c2c3ccc(=[N+](CCOCCOC)CCOCCOC)cc-3oc3cc(N(CCOCCOC)CCOCCOC)ccc23)c([O-])c1`, the pKa in data set [1] is 2.3.
